Experimental data taken from ChEMBL document CHEMBL2176907, “Identification of multiple 5-HT₄ partial agonist clinical candidates for the treatment of Alzheimer's disease” (J Med Chem, 2012).
pEC50, pKi: −log10 of the molar value. The source made the active and inactive calls. No cut-off for these calls is given here.

Tests used:
[1] = Intrinsic clearance in human liver microsomes; format: ADME, Microsome; conditions: read-out: CLH
[2] = Apparent permeability from apical to basal side of RRCK cells at 2 uM after 2 hrs by transwell assay; format: ADME, cell-based, Canis lupus familiaris, MDCKII-LE; conditions: dog, MDCK
MDR1 = test: in vitro; conditions: dog, MDCK-MDR1
Description: Efflux ratio of permeability from basal to apical to apical to basal side of MDCK cells expressing MDR1 at 2 uM after 5 hrs by transwell assay

CYP2D6 = CYP2D6 (Homo sapiens, UniProt P10635); test: Inhibition of CYP2D6 in human liver microsomes using dextromethorphan as substrate at 3 uM; format: ADME, Microsome; conditions: probe dextromethorphan
[3] = target: T1, 5-hydroxytryptamine receptor 4 (Homo sapiens, UniProt Q13639); test: biochemical
Description: Displacement of [3H]GR113808 from human 5HT4D receptor expressed in HEK293 cells after 30 mins by liquid scintillation counting

[4] = target: T1, 5-hydroxytryptamine receptor 4; test: Agonist activity at human 5HT4D receptor expressed in HEK293 cells assessed as cAMP production after 30 mins by HTRF assay; format: functional, cell-based
[5] = target: T1, 5-hydroxytryptamine receptor 4; test: Agonist activity at human 5HT4D receptor expressed in HEK293 cells assessed as cAMP production after 30 mins by HTRF assay relative to 5HT; format: functional, cell-based
[6] = target: 5-hydroxytryptamine receptor 4 (Rattus norvegicus) (UniProt Q62758); test: Agonist activity at 5HT4 receptor in rat oesophagus assessed as reversal of carbamylcholine-induced contraction at 10 uM incubated at 7 mins post carbamylcholine-challenge measured after 30 mins relative to 5HT; format: functional
Sequence of 5-hydroxytryptamine receptor 4 (Rattus norvegicus) (Q62758 whole entry): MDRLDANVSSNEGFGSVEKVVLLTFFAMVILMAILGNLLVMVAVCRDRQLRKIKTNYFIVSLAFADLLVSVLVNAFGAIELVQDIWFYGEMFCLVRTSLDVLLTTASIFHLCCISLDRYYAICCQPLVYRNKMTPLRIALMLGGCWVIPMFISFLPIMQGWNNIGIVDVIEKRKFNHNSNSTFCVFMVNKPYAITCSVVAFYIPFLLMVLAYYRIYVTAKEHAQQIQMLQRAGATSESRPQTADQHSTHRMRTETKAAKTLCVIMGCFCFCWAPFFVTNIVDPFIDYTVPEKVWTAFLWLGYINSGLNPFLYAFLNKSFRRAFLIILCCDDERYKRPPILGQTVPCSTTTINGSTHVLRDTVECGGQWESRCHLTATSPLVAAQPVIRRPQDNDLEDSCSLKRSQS

T1 sequence (Q13639 whole entry): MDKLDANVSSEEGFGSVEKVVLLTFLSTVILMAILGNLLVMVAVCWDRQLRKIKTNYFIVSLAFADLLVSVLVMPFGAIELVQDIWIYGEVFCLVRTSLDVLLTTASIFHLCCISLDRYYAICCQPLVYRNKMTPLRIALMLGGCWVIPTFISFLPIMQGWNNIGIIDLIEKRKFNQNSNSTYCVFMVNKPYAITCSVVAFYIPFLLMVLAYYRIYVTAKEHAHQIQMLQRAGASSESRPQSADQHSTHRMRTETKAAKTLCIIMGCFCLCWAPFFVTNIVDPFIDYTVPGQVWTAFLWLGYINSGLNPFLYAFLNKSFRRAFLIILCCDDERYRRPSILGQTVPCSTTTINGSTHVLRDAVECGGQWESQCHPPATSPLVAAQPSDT
Sequence of CYP2D6 (P10635 whole entry): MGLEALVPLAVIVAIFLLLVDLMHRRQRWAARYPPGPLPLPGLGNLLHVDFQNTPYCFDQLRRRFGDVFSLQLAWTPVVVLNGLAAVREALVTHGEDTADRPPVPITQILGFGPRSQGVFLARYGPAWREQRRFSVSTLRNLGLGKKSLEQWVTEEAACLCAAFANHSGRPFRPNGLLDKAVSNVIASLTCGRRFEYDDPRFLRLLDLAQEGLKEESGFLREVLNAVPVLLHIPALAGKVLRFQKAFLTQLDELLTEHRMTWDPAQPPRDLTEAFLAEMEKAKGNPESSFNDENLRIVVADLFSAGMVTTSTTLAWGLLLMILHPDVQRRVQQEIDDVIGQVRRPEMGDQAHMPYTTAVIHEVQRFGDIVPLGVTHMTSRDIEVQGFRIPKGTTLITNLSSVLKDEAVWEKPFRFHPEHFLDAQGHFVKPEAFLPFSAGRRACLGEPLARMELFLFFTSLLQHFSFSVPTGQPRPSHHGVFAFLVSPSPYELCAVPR

With `CC(C)(O)COc1cccc2onc(OCC3CCN(CC4(O)CCOCC4)CC3)c12` the CLint scaled [1] was 38 mL/min/kg, the Papp A→B at 2 h, 2 µM [2] was 35 ×10⁻⁶ cm/s and the efflux ratio at 5 h, 2 µM (MDR1) was 1.6. It also gave an inhibition at 3 µM (CYP2D6) of 21%, a pKi [3] of 8.44 and a pEC50 [4] of 8.77. It also gave an Emax [5] of 50%.

With `CCCCN1CCC(COc2noc3cccc(OCC(C)(C)C)c23)CC1` the inhibition at 3 µM (CYP2D6) was 93%, the pKi [3] was 8.28 and the pEC50 [4] was 8.20. The Emax [5] was 95%.

In the case of `COCCCN1CCC(NC(=O)c2cc(Cl)c(N)c3c2OCC3)CC1`, the Activity [6] was “Active”.

Molecule `CCCCN1CCC(COc2noc3cccc(OCC4CCC4)c23)CC1` has an inhibition at 3 µM (CYP2D6) of 93%.

For `CCCCN1CCC(COc2noc3cccc(OC4CCCC4)c23)CC1`, the CLint scaled [1] was 77 mL/min/kg, the Papp A→B at 2 h, 2 µM [2] was 2.4 ×10⁻⁶ cm/s and the inhibition at 3 µM (CYP2D6) was 79%. It also gave a pKi [3] of 9.13, a pEC50 [4] of 8.92 and an Emax [5] of 81%.
